{"source": "patent US6489350B1", "about": "“Methods for treating neuropathic pain using heteroarylmethanesulfonamides” (Elan Pharmaceuticals, Inc., priority 1999, dated 2002)", "key": {"[1]": {"system": "Rats with Streptozotocin (STZ)-Induced Diabetes Mellitus and Consequent Diabetic Neuropathy", "test": "Paw withdrawal force (mechanical hyperalgesia) in rats with streptozotocin-induced diabetes", "format": "in vivo, Male Wistar rats", "details": "for Paw withdrawal threshold force, Week 1 Mean: Week 1, before drug treatment (baseline); for Paw withdrawal threshold force, Week 2 Mean: Week 2, before drug treatment (baseline); for Paw withdrawal threshold force, Week 3 Mean: Week 3, before drug treatment (baseline); for Paw withdrawal threshold force, Week 4 Mean: Week 4, before drug treatment (baseline)", "method": "Male Wistar rats (250-300 g), following an overnight fast, were made diabetic with 55 mg/kg i.p. streptozotocin (Sigma, St. Louis, Mo., USA). Tail ven blood was sampled 48 h later and glucose estimated by reflectance photometry (Reflocheck, Boehringer Mannheim). All STZ-treated rats had blood glucose >15 mmol/l and were included in the study. Animals were housed in boxes of three or four and maintained with food and water ad libitum for up to 6 weeks. non-diabetic control rats were housed in identical conditions. Each week (Friday) paw—pressure latency was measured as described immediately below.\nA force was applied at a constant rate with a cone-shaped piston to the upper surface of the rat hindpaw until paw withdrawal; the force triggering withdrawal is measured as the “paw withdrawal force”. An arbitrary cut-off force of 240 g was adopted to preclude traumatic damage. Rats are trained such that latency is measured weekly, on Fridays.\nAt the start of week 5, drug treatments as defined for each of the groups set out below were commenced, such that 5 treatments preceded paw pressure testing. The injections and pressure test were timed so that, for each rat, the pressure test was made between 30 and 35 min after injection.\nMonday of week 1 the rats were injected with streptozotocin and blood glucose determinations were made Wednesday of that week, on the Friday the 1st paw pressure test was performed. In weeks 2, 3, and 4 only paw pressure tests were performed on each of the Fridays. In week 5 treatments of groups C, D and E were begun with either zonisarnide (Groups C and D) or MK-801 (Group E) and paw pressure tests were performed on all groups on Friday.\nGroup B was given a single dose of zonisamide at 50 mg/kg on the Friday of week 6 and paw withdrawal force measured 30 min later.\nGroup D was maintained without treatment for week 6 (drug “washout”) and measured again on the Friday of week 6.\nData are means with standard deviations. Zonisamide was given once daily (p.o.) between 08:30 and 09:00 for 5 days during Week 5. MK-801 was given at 0.1 mg/kg i.p. twice daily (morning and evening). All measurements were made on Fridays between 10:30 and 13:30 hr. In Week 6, the designated “diabetic untreated” group (Group B) was given a single p.o. dose of 50 mg/kg zonisamide 2-3 h before measurement. For Week 6, drug treatment was withdrawn from Group D (last dose on Friday of week 5)."}, "[2]": {"system": "formalin-induced hyperalgesia in rats", "test": "Formalin test model in rats (paw flinches)", "format": "in vivo, rat", "method": "The formalin test model in rats was conducted based on the protocol developed and reported by Malmberg A. B. and Yaksh T. L. (1992) as an animal model of hyperalgesia.\nThe formalin pain test produces an “early” pain that rapidly rises and falls in intensity during the first five minutes after the injection, followed by a “late” pain, which begins about 15 minutes after the injection and persists for about an hour. It has been observed that this formalin-induced pain continues even after the nerves carrying pain signals have been blocked which implies that long-lasting pain is determined not only by sensory stimulation during the discomfort but also by brain processes that persist without continual priming.\nEight (8) animals received 100 mg/kg zonisamide via oral (gastric lavage tube) administration, and eight (8) animals received sterile water as a vehicle. On the morning of testing, a small metal band (0.5 g) was loosely placed around the right hind paw. After 1 hour, the rat was placed in a cylindrical plexiglass changer for adaptation. After one additional hour, the rat was then placed in a similar cylindrical chamber that was placed on the sensing pad of an automated formalin device that senses the movement of the metal band in the space above the area above the pad. The formalin test involved injecting 50 μl of 5% formalin into the dorsal surface of the right hindpaw. […] These flinches were counted automatically and continuously over the following one-hour interval. At one hour the animal was removed and sacrificed by carbon dioxide inhalation.\nThe results of the tests are presented in FIGS. 2A as summations at 5-minute intervals, and in 2B broken down into phase responses. (Phase I being the “early” pain response to the formalin injection and phase II, IIA and IIB being “late” phase parts of the facilitated response state discussed above and in the Detailed Description)."}, "[3]": {"system": "formalin-evoked behavior in diabetic rats", "details": "50 mg/kg i.p. 30 min pre-test; 5.0% formalin; both control and diabetic rats; cited from earlier work"}, "[4]": {"details": "Group C diabetic, zonisamide 20 mg/kg group"}, "[5]": {"details": "Group D diabetic, zonisamide 50 mg/kg group"}, "[6]": {"details": "100 mg/kg orally prior to 5% formalin injection, vs water vehicle"}, "[7]": {"details": "Group E diabetic, MK-801 0.1 mg/kg group"}}, "note": "Entries after “also recorded” stand apart in the source; their conditions may differ."}
{"molecule": "NS(=O)(=O)Cc1noc2ccccc12", "note": "[zonisamide, 1,2-benzisoxazole-3-methanesulfonamide]", "values": [{"measurement": "Effect on hyperalgesia (change in paw withdrawal force)", "setting": "[1]; 20 mg/kg p.o. for 5 days, reduction in tolerated force still present and significant (p<0.0002)", "value": "attenuated this hyperalgesia"}, {"measurement": "Effect on hyperalgesia (change in paw withdrawal force)", "setting": "[1]; 50 mg/kg p.o. daily for 5 days, p=0.703, paired t-test", "value": "obliterated the change in paw withdrawal force; also recorded: increase in force necessary to evoke a hyperalgesic pain response"}, {"measurement": "Activity against mechanical hyperalgesia (conclusion)", "setting": "[1]; 4-5 weeks of STZ diabetes in rats, dose related", "value": "active against the mechanical hyperalgesia"}, {"measurement": "Paw withdrawal threshold force, Week 6 Mean", "setting": "[1]; Group B, previously untreated diabetic rats, single p.o. dose of 50 mg/kg in Week 6", "value": 213.6, "unit": "g"}, {"measurement": "Paw withdrawal threshold force, Week 1 Mean", "setting": "[1]; [4]", "value": 212.2, "unit": "g"}, {"measurement": "Paw withdrawal threshold force, Week 2 Mean", "setting": "[1]; [4]", "value": 206.4, "unit": "g"}, {"measurement": "Paw withdrawal threshold force, Week 3 Mean", "setting": "[1]; [4]", "value": 199.6, "unit": "g"}, {"measurement": "Paw withdrawal threshold force, Week 4 Mean", "setting": "[1]; [4]", "value": 190.0, "unit": "g"}, {"measurement": "Paw withdrawal threshold force, Week 5 Mean", "setting": "[1]; Group C diabetic, 20 mg/kg p.o. once daily for 5 days during Week 5", "value": 195.0, "unit": "g"}, {"measurement": "Paw withdrawal threshold force, Week 1 Mean", "setting": "[1]; [5]", "value": 212.72, "unit": "g"}, {"measurement": "Paw withdrawal threshold force, Week 2 Mean", "setting": "[1]; [5]", "value": 208.9, "unit": "g"}, {"measurement": "Paw withdrawal threshold force, Week 3 Mean", "setting": "[1]; [5]", "value": 200.7, "unit": "g"}, {"measurement": "Paw withdrawal threshold force, Week 4 Mean", "setting": "[1]; [5]", "value": 191.5, "unit": "g"}, {"measurement": "Paw withdrawal threshold force, Week 5 Mean", "setting": "[1]; Group D diabetic, 50 mg/kg p.o. once daily for 5 days during Week 5", "value": 214.9, "unit": "g"}, {"measurement": "Paw withdrawal threshold force, Week 6 Mean", "setting": "[1]; Group D diabetic, Week 6, drug washout, last 50 mg/kg dose on Friday of week 5", "value": 186.2, "unit": "g"}, {"measurement": "Effect of withdrawal and washout of the drug on hyperalgesia", "setting": "[1]; one week after treatment with 50 mg/kg for 5 days, p<0.002, 50 mg/kg", "value": "return of the hyperalgesia; also recorded: force required to cause a paw withdrawal reaction was reduced"}, {"measurement": "Effect on mechanical hyperalgesia after a single dose", "setting": "[1]; previously untreated diabetic rats, single 50 mg/kg dose, p<<0.0001, 50 mg/kg", "value": "obliterated the mechanical hyperalgesia; also recorded: increase in force necessary to evoke a hyperalgesic pain response"}, {"measurement": "Effect on Phase I flinches", "setting": "[2]; [6]", "value": "not significant effect"}, {"measurement": "Effect on Phase II flinches", "setting": "[2]; [6]", "value": "not significant effect"}, {"measurement": "Effect on Phase IIA flinches", "setting": "[2]; [6]", "value": "statistically significant effect; also recorded: significantly reduced"}, {"measurement": "Effect on Phase IIB flinches", "setting": "[2]; [6]", "value": "not significant effect"}, {"measurement": "Behavioral deficits", "setting": "[2]; 100 mg/kg orally, rats", "value": "No behavioral deficits were noted"}]}
{"molecule": "NCC1(CC(=O)O)CCCCC1", "note": "[Gabapentin, 1-(aminomethyl)cyclohexaneacetic acid]", "values": [{"measurement": "Flinching during phases 1 and 2 of the formalin test", "setting": "[3]", "value": "suppressed flinching"}]}
{"molecule": "C[C@]12N[C@H](Cc3ccccc31)c1ccccc12", "note": "[MK-801, dizocilpine]", "values": [{"measurement": "Paw withdrawal threshold force, Week 1 Mean", "setting": "[1]; [7]", "value": 214.9, "unit": "g"}, {"measurement": "Paw withdrawal threshold force, Week 2 Mean", "setting": "[1]; [7]", "value": 207.1, "unit": "g"}, {"measurement": "Paw withdrawal threshold force, Week 3 Mean", "setting": "[1]; [7]", "value": 200.0, "unit": "g"}, {"measurement": "Paw withdrawal threshold force, Week 4 Mean", "setting": "[1]; [7]", "value": 191.4, "unit": "g"}, {"measurement": "Paw withdrawal threshold force, Week 5 Mean", "setting": "[1]; Group E diabetic, 0.1 mg/kg i.p. twice daily for 5 days during Week 5", "value": 221.8, "unit": "g"}]}
